Measured values from PubChem BioAssay (NCI).
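In this assay, cells in 96-well plates receive the compound at five concentrations for 48 hours. Endpoints are linearly interpolated between the surrounding concentrations. At the GI50, growth is halved. TGI: total growth inhibition.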

Legend:
Assay in all cases: inhibition of tumour cell growth, NCI panel, 48 h
786-0 renal = test system: 786-0 renal
A498 renal = test system: A498 renal
A549 NSCLC = test system: A549 NSCLC
ACHN renal = test system: ACHN renal
BT-549 breast = test system: BT-549 breast
CAKI-1 renal = test system: CAKI-1 renal
CCRF-CEM leukemia = test system: CCRF-CEM leukemia
COLO 205 colon = test system: COLO 205 colon
DU-145 prostate = test system: DU-145 prostate
EKVX NSCLC = test system: EKVX NSCLC
HCC-2998 colon = test system: HCC-2998 colon
HCT-116 colon = test system: HCT-116 colon
HCT-15 colon = test system: HCT-15 colon
HL-60(TB) leukemia = test system: HL-60(TB) leukemia
HOP-62 NSCLC = test system: HOP-62 NSCLC
HOP-92 NSCLC = test system: HOP-92 NSCLC
HS 578T breast = test system: HS 578T breast
HT29 colon = test system: HT29 colon
IGROV1 ovarian = test system: IGROV1 ovarian
K-562 leukemia = test system: K-562 leukemia
KM12 colon = test system: KM12 colon
LOX IMVI melanoma = test system: LOX IMVI melanoma
M14 melanoma = test system: M14 melanoma
MALME-3M melanoma = test system: MALME-3M melanoma
MCF7 breast = test system: MCF7 breast
MDA-MB-231 breast = test system: MDA-MB-231 breast
MDA-MB-435 = test system: MDA-MB-435
MOLT-4 leukemia = test system: MOLT-4 leukemia
NCI-H226 lung = test system: NCI-H226 lung

Cc1cc(Cl)ccc1OCc1nn2c(CCCCc3nnc4sc(COc5ccc(Cl)cc5C)nn34)nnc2s1
GI50 (786-0 renal): 26.7 µM | TGI (786-0 renal): 55.5 µM | GI50 (A498 renal): 1.67 µM | TGI (A498 renal): 8.21 µM | GI50 (A549 NSCLC): 27 µM | TGI (A549 NSCLC): > 100 µM | GI50 (ACHN renal): 34.1 µM | TGI (ACHN renal): > 100 µM | GI50 (BT-549 breast): 11.6 µM | TGI (BT-549 breast): 51.8 µM | GI50 (CAKI-1 renal): 4.52 µM | TGI (CAKI-1 renal): > 55.3 µM | GI50 (CCRF-CEM leukemia): 33.7 µM | TGI (CCRF-CEM leukemia): > 61.6 µM | GI50 (COLO 205 colon): 43.5 µM | TGI (COLO 205 colon): > 100 µM | GI50 (DU-145 prostate): 13.9 µM | TGI (DU-145 prostate): > 100 µM | GI50 (EKVX NSCLC): 11.3 µM | TGI (EKVX NSCLC): > 76.2 µM | GI50 (HCC-2998 colon): 30.2 µM | TGI (HCC-2998 colon): > 100 µM | GI50 (HCT-116 colon): 32.2 µM | TGI (HCT-116 colon): > 81 µM | GI50 (HCT-15 colon): 47.1 µM | TGI (HCT-15 colon): > 100 µM | GI50 (HL-60(TB) leukemia): > 94.2 µM | TGI (HL-60(TB) leukemia): > 100 µM | GI50 (HOP-62 NSCLC): 32.2 µM | TGI (HOP-62 NSCLC): 58.5 µM | GI50 (HOP-92 NSCLC): 34.2 µM | TGI (HOP-92 NSCLC): > 68.8 µM | GI50 (HS 578T breast): 0.544 µM | GI50 (HT29 colon): 43.6 µM | TGI (HT29 colon): > 100 µM | GI50 (IGROV1 ovarian): 28.4 µM | TGI (IGROV1 ovarian): > 100 µM | GI50 (K-562 leukemia): > 73.2 µM | TGI (K-562 leukemia): > 100 µM | GI50 (KM12 colon): 17.2 µM | TGI (KM12 colon): > 100 µM | GI50 (LOX IMVI melanoma): 28.2 µM | TGI (LOX IMVI melanoma): > 100 µM | GI50 (M14 melanoma): 45.9 µM | TGI (M14 melanoma): > 100 µM | GI50 (MALME-3M melanoma): 29.2 µM | TGI (MALME-3M melanoma): > 86.1 µM | GI50 (MCF7 breast): 21.9 µM | TGI (MCF7 breast): > 73.2 µM | GI50 (MDA-MB-231 breast): 17.7 µM | TGI (MDA-MB-231 breast): > 78.6 µM | GI50 (MDA-MB-435): 7.12 µM | TGI (MDA-MB-435): > 57.8 µM | GI50 (MOLT-4 leukemia): 25.5 µM | TGI (MOLT-4 leukemia): > 100 µM | GI50 (NCI-H226 lung): 21.8 µM
